Test results: PubChem BioAssay AID1918939 (Molecular Pharmacology Branch, DTP, NCI, 2023)
pIC50: −log10 of the molar value.

Tested on: 653999-131-R-J2-PDC complex spheroid viability
Experiment: Anticancer human tumor 653999-131-R-J2-PDC patient-derived lung adenocarcinoma cell line growth inhibition
Settings: for pIC50: curve of first compound; for viability, T/C: stronger effect = lower value
Method in brief: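 Multicellular complex spheroids of tumor cells with human endothelial cells (HUVEC) and mesenchymal stem cells; the LSD1 inhibitor iadademstat was combined with standard-of-care or investigational agents. Top concentration at or near clinical Cmax, half-log dilutions; final DMSO ≤0.25%.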

[1] = second compound 0.1 µM, first compound 0.0316 µM
[2] = second compound 0.1 µM, first compound 0.1 µM
[3] = second compound 0.1 µM, first compound 0.316 µM
[4] = second compound 0.1 µM, first compound 1 µM
[5] = second compound 0.1 µM, first compound 3.16 µM
[6] = second compound 0.1 µM, first compound 10 µM
[7] = second compound 0.316 µM, first compound 0.0316 µM
[8] = second compound 0.316 µM, first compound 0.1 µM
[9] = second compound 0.316 µM, first compound 0.316 µM
[10] = second compound 0.316 µM, first compound 1 µM
[11] = second compound 0.316 µM, first compound 3.16 µM
[12] = second compound 0.316 µM, first compound 10 µM
[13] = second compound 1 µM, first compound 0.0316 µM
[14] = second compound 1 µM, first compound 0.1 µM
[15] = second compound 1 µM, first compound 0.316 µM
[16] = second compound 1 µM, first compound 1 µM
[17] = second compound 1 µM, first compound 3.16 µM
[18] = second compound 1 µM, first compound 10 µM
[19] = second compound 3.16 µM, first compound 0.0316 µM
[20] = second compound 3.16 µM, first compound 0.1 µM
[21] = second compound 3.16 µM, first compound 0.316 µM
[22] = second compound 3.16 µM, first compound 1 µM
[23] = second compound 3.16 µM, first compound 3.16 µM
[24] = second compound 3.16 µM, first compound 10 µM
[25] = second compound 10 µM, first compound 0.0316 µM
[26] = second compound 10 µM, first compound 0.1 µM
[27] = second compound 10 µM, first compound 0.316 µM
[28] = second compound 10 µM, first compound 1 µM
[29] = second compound 10 µM, first compound 3.16 µM
[30] = second compound 10 µM, first compound 10 µM
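Further: spheroids exposed to agents for seven days before readout.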

Compound	pIC50 (second compound 0.1 µM)	pIC50 (second compound 0.316 µM)	pIC50 (second compound 1 µM)	pIC50 (second compound 3.16 µM)	pIC50 (second compound 10 µM)	viability, T/C [1] [%]	viability, T/C [2] [%]	viability, T/C [3] [%]	viability, T/C [4] [%]	viability, T/C [7] [%]	viability, T/C [8] [%]	viability, T/C [9] [%]	viability, T/C [10] [%]	viability, T/C [13] [%]	viability, T/C [14] [%]	viability, T/C [15] [%]	viability, T/C [16] [%]	viability, T/C [19] [%]	viability, T/C [20] [%]	viability, T/C [21] [%]	other results
CC(C)c1c(-c2ccccc2)nc2c(C#N)c[nH]n2c1=O + NC1CC1c1ccc(-c2cccc(O)c2)cc1	< 5.00	< 5.00	< 5.00	< 5.00	< 5.00	87.3	96.5	89.1	76.9	84	83.7	90.9	74.8	73.1	87.2	86.1	77.8	84.2	72.5	80.2	viability, T/C [5]: 80.1%; viability, T/C [6]: 80.5%; viability, T/C [11]: 64.2%; viability, T/C [12]: 66.2%; viability, T/C [17]: 66.7%; viability, T/C [18]: 72.2%; viability, T/C [22]: 68.7%; viability, T/C [23]: 77.5%; viability, T/C [24]: 76.8%; viability, T/C [25]: 80.8%; viability, T/C [26]: 73.8%; viability, T/C [27]: 77.4%; viability, T/C [28]: 76.5%; viability, T/C [29]: 68.9%; viability, T/C [30]: 65.6%
CC1COCCN1c1cc(-c2ccnn2C)c2ccnc(-c3ccn[nH]3)c2n1 (stereo not given) + NC1CC1c1ccc(-c2cccc(O)c2)cc1	8.27	> 8.50	> 8.50	> 8.50	> 8.50	44.3	29.7	42.7	45.7	36.7	36.6	36.1	48.5	36.8	32.7	31	36.3	36.5	28.8	36.1	viability, T/C (second compound 0.1 µM, first compound 0.00316 µM): 52%; viability, T/C (second compound 0.1 µM, first compound 0.01 µM): 50%; viability, T/C (second compound 0.316 µM, first compound 0.00316 µM): 47.7%; viability, T/C (second compound 0.316 µM, first compound 0.01 µM): 44.4%; viability, T/C (second compound 1 µM, first compound 0.00316 µM): 45.5%; viability, T/C (second compound 1 µM, first compound 0.01 µM): 47%; viability, T/C (second compound 3.16 µM, first compound 0.00316 µM): 49.5%; viability, T/C (second compound 3.16 µM, first compound 0.01 µM): 45.5%; viability, T/C [22]: 39.7%; viability, T/C (second compound 10 µM, first compound 0.00316 µM): 47.5%; viability, T/C (second compound 10 µM, first compound 0.01 µM): 46.6%; viability, T/C [25]: 39.5%; viability, T/C [26]: 29%; viability, T/C [27]: 29.7%; viability, T/C [28]: 34.7%
COc1ccc([C@@H](O)c2cc(-c3ncnc4cc(N5CCOCC5)ccc34)c(F)cc2Cl)nn1 + NC1CC1c1ccc(-c2cccc(O)c2)cc1	5.55	5.90	6.01	5.95	6.01	79.2	84.6	72.1	55	74.1	86.5	65.8	51.1	85.6	74.3	70.2	49.3	77.4	71.5	63.2	viability, T/C [5]: 54.1%; viability, T/C [6]: 28.5%; viability, T/C [11]: 40.7%; viability, T/C [12]: 26.5%; viability, T/C [17]: 31.9%; viability, T/C [18]: 24.4%; viability, T/C [22]: 49.5%; viability, T/C [23]: 39.4%; viability, T/C [24]: 22.6%; viability, T/C [25]: 71.2%; viability, T/C [26]: 70.6%; viability, T/C [27]: 58.2%; viability, T/C [28]: 53.3%; viability, T/C [29]: 33%; viability, T/C [30]: 26.1%
